# Tests used:
# [1] = Release of 10-hydroxycamptothecin from polymer-collagen composites; type: physicochemical; conditions: PBS at 37° C.
# Method: Using the procedures from Example 2, a composite was constructed from a collagen-based scaffold with a poly(caprolactone) barrier layer and two 10-hydroxycaptothecin-loaded (2% w/w) poly(glycerol monostearate) layers. The composites were submerged in 0.150 mL of PBS at 37° C. At specific time points, an aliquot of release media was removed and the concentration of HCPT was measured by fluorescence spectroscopy (λEx=382 nm and λEm=550 nm, Photon Technology International QM-4/2005 spectrofluorimeter). A calibration curve was constructed from nine samples of known HCPT concentrations with linearity observed from 10 nM to 5 μM (R^2=0.999) from which the drug concentration of each aliquot was determined. After the completion of release, the HCPT remaining in each film was quantified. Films were dissolved CH2Cl2 to release encapsulated drug, the solvent evaporated, and PBS (150 mL) was added under rigorous stirring. The fluorescence spectrum was recorded and remaining drug measured.
# [2] = test system: tumor; conditions: pouch sutured subcutaneously, loaded three days after tumor inoculation; 30 day observation period; cited from earlier work
# [3] = test system: 4T1 metastatic mammary mouse tumor cells; conditions: implants co-implanted with 4T1 cells; cited from earlier work
compound,measurement,setting,value
CC[C@@]1(O)C(=O)OCc2c1cc1n(c2=O)Cc2cc3cc(O)ccc3nc2-1 [10-hydroxycamptothecin],HCPT released over the first 24 hours,"[1]; collagen scaffold, poly(caprolactone) barrier, two 2% w/w HCPT layers",about 10%
same,HCPT release rate after the first five weeks,[1]; same composite,0.5 % release per day
same,"HCPT release rate, first two weeks",[1]; same composite,2 % loading per day
same,"HCPT release rate, following three weeks",[1]; same composite,approximately 1 % per day
same,duration of continued release detected,[1]; same composite,at least 6 weeks
Nc1ccn([C@@H]2O[C@H](CO)[C@@H](O)C2(F)F)c(=O)n1 [gemcitabine],mice with no observable tumor mass,[2],Four of six
CC(C)CCCC(C)C1CCC2C3CC(C[131I])C4=C(CCC(O)C4)C3CCC12C (stereo not shown) [^131I-norcholesterol],mice in which tumor growth was prevented,[3],69%
